Measurements taken from ChEMBL document CHEMBL3526001, “Attenuation of intestinal absorption by major efflux transporters: quantitative tools and strategies using a Caco-2 model” (Drug Metab Dispos, 2011).

Key:
clinical = settings: human, in vivo
Description: Fraction absorbed in human

in vitro [1] = settings: human, Caco-2
in vitro [2] = settings: human, Caco-2; remark: listed apart in the source
P-gp = assay: in vitro; settings: human
in vitro [3] = settings: human, Caco-2; remark: listed apart in the source

Structure (SMILES)	Fa (clinical) [%]	efflux ratio at 2 h, 10 µM (in vitro [1])	Papp A→B at 2 h, 10 µM (in vitro [2]) [×10⁻⁶ cm/s]	efflux ratio at 2 h, 10 µM (P-gp; Caco-2)	Papp B→A at 2 h, 10 µM (in vitro [3]) [×10⁻⁶ cm/s]	efflux ratio at 2 h, 10 µM (P-gp; Caco-2, with LY335979 1 uM)
CCCCC(=O)N(Cc1ccc(-c2ccccc2-c2nnn[nH]2)cc1)[C@H](C(=O)O)C(C)C	25	4.1	0.4	2.9	1.7	
CC(C)CN(C[C@@H](O)[C@H](Cc1ccccc1)NC(=O)O[C@H]1CCOC1)S(=O)(=O)c1ccc(N)cc1	70		8			
CNS(=O)(=O)Cc1ccc2[nH]cc(CCN(C)C)c2c1		1.4	1.5		2.2	0.5
O=C(O)CN(CCN(CC(=O)O)Cc1ccccc1O)Cc1ccccc1O		2.1	0.02		0.04	2
CC(C)(C)NC(=O)[C@@H]1CN(Cc2cccnc2)CCN1C[C@@H](O)C[C@@H](Cc1ccccc1)C(=O)N[C@H]1c2ccccc2C[C@H]1O.O	63	9.7	2.4	0.8	22.8	
Cc1c(O)cccc1C(=O)N[C@@H](CSc1ccccc1)[C@H](O)CN1C[C@H]2CCCC[C@H]2C[C@H]1C(=O)NC(C)(C)C	3	2.5	0.7		1.7	0.7
CCCC(=O)Nc1ccc(OCC(O)CNC(C)C)c(C(C)=O)c1 (stereo unspecified) [ACEBUTOLOL]	70	3.6	1.1	1	4.1	
COCc1c(C(C)C)nc(C(C)C)c(/C=C/[C@@H](O)C[C@@H](O)CC(=O)O)c1-c1ccc(F)cc1 [CERIVASTATIN]	98					
O=C(O)COCCN1CCN(C(c2ccccc2)c2ccc(Cl)cc2)CC1 (stereo unspecified) [CETIRIZINE]	66					
CCN(CC)CCCC(C)Nc1ccnc2cc(Cl)ccc12 (stereo unspecified) [CHLOROQUINE]	89					
CC[C@H]1OC(=O)[C@H](C)[C@@H](O[C@H]2C[C@@](C)(OC)[C@@H](O)[C@H](C)O2)[C@H](C)[C@@H](O[C@@H]2O[C@H](C)C[C@H](N(C)C)[C@H]2O)[C@](C)(OC)C[C@@H](C)C(=O)[C@H](C)[C@@H](O)[C@]1(C)O [CLARITHROMYCIN]	50	5.1	3.5	0.8	18	
OCCN(CCO)c1nc(N2CCCCC2)c2nc(N(CCO)CCO)nc(N3CCCCC3)c2n1 [DIPYRIDAMOLE]	66					
OC(Cn1cncn1)(Cn1cncn1)c1ccc(F)cc1F [FLUCONAZOLE]		0.6	11.6	0.1	6.7	
CNCCC(Oc1ccc(C(F)(F)F)cc1)c1ccccc1 (stereo unspecified) [FLUOXETINE]	70					
O=C(CCCN1CCC(O)(c2ccc(Cl)cc2)CC1)c1ccc(F)cc1 [HALOPERIDOL]	60	0.4	4.1		1.8	0.4
Cc1ccc(NC(=O)c2ccc(CN3CCN(C)CC3)cc2)cc1Nc1nccc(-c2cccnc2)n1 [IMATINIB]	67					
CCc1c2c(nc3ccc(OC(=O)N4CCC(N5CCCCC5)CC4)cc13)-c1cc3c(c(=O)n1C2)COC(=O)[C@]3(O)CC [IRINOTECAN]		3.7	1.4		5.1	2.7
CC(=O)N1CCN(c2ccc(OCC3COC(Cn4ccnc4)(c4ccc(Cl)cc4Cl)O3)cc2)CC1 (stereo unspecified) [KETOCONAZOLE]	90		18		5.1	

Structure (SMILES)	Fa (clinical) [%]	efflux ratio at 2 h, 10 µM (in vitro [1])	Papp A→B at 2 h, 10 µM (in vitro [2]) [×10⁻⁶ cm/s]	efflux ratio at 2 h, 10 µM (P-gp; Caco-2)	Papp B→A at 2 h, 10 µM (in vitro [3]) [×10⁻⁶ cm/s]	efflux ratio at 2 h, 10 µM (P-gp; Caco-2, with LY335979 1 uM)
CN(C)C(=O)C(CCN1CCC(O)(c2ccc(Cl)cc2)CC1)(c1ccccc1)c1ccccc1 [LOPERAMIDE]			5.8		7.6	
C[C@H]1C[C@@H]2[C@H]([C@@H](O)C[C@@]3(C)[C@H]2CC[C@]3(O)C(=O)CO)[C@@]2(C)C=CC(=O)C=C12 [METHYLPREDNISOLONE]		2.9	8.5		24.6	0.8
O=C1c2c(O)ccc(O)c2C(=O)c2c(NCCNCCO)ccc(NCCNCCO)c21 [MITOXANTRONE]	85	0.5	26.3	0.6	12.5	
COC(=O)C1=C(C)NC(C)=C(C(=O)OCCN(C)Cc2ccccc2)C1c1cccc([N+](=O)[O-])c1 (stereo unspecified) [NICARDIPINE]	100	0.5	5	0.5	2.6	
O=C1CN(/N=C/c2ccc([N+](=O)[O-])o2)C(=O)N1 [NITROFURANTOIN]	100	10.4	1.1		11.1	
CCn1cc(C(=O)O)c(=O)c2cc(F)c(N3CCNCC3)cc21 [NORFLOXACIN]	40	1.7	1.9	1.7	3.3	
O=C(O)c1cc(/N=N/c2ccc(O)c(C(=O)O)c2)ccc1O [OLSALAZINE]		3.7	0.9		3.1	1.9
CC(=O)O[C@H]1C(=O)[C@@]2(C)[C@H]([C@H](OC(=O)c3ccccc3)[C@]3(O)C[C@H](OC(=O)[C@H](O)[C@@H](NC(=O)c4ccccc4)c4ccccc4)C(C)=C1C3(C)C)[C@]1(OC(C)=O)CO[C@@H]1C[C@@H]2O [PACLITAXEL]	6					
COc1cc2nc(N3CCN(C(=O)c4ccco4)CC3)nc(N)c2cc1OC [PRAZOSIN]	100	1.8	6.2		11.1	
COC(=O)[C@H]1[C@H]2C[C@@H]3c4[nH]c5cc(OC)ccc5c4CCN3C[C@H]2C[C@@H](OC(=O)c2cc(OC)c(OC)c(OC)c2)[C@@H]1OC [RESERPINE]	50	0.6	3.6	0.7	2.3	
CC(C)c1nc(CN(C)C(=O)N[C@H](C(=O)N[C@@H](Cc2ccccc2)C[C@H](O)[C@H](Cc2ccccc2)NC(=O)OCc2cncs2)C(C)C)cs1 [RITONAVIR]	66		2.1		9.2	
CC(C)c1nc(N(C)S(C)(=O)=O)nc(-c2ccc(F)cc2)c1/C=C/[C@@H](O)C[C@@H](O)CC(=O)O [ROSUVASTATIN]	20	15.9	0.5		7.5	
C=CC[C@@H]1/C=C(\C)C[C@H](C)C[C@H](OC)[C@H]2O[C@@](O)(C(=O)C(=O)N3CCCC[C@H]3C(=O)O[C@H](/C(C)=C/[C@@H]3CC[C@@H](O)[C@H](OC)C3)[C@H](C)[C@@H](O)CC1=O)[C@H](C)C[C@@H]2OC [TACROLIMUS ANHYDROUS]	25	3.5	1		3.6	0.7
COc1cc([C@@H]2c3cc4c(cc3[C@@H](O[C@@H]3O[C@@H]5CO[C@@H](c6cccs6)O[C@H]5[C@H](O)[C@H]3O)[C@H]3COC(=O)[C@H]23)OCO4)cc(OC)c1O [TENIPOSIDE]	0	9.8	0.9		8.8	2.1
CN1CCN(CCCN2c3ccccc3Sc3ccc(C(F)(F)F)cc32)CC1 [TRIFLUOPERAZINE]	16	1.9	0.5	0.9	1	
COc1cc(Cc2cnc(N)nc2N)cc(OC)c1OC [TRIMETHOPRIM]		0.7	15.9	0.4	11.2	
Cc1cn([C@H]2C[C@H](N=[N+]=[N-])[C@@H](CO)O2)c(=O)[nH]c1=O [ZIDOVUDINE]	90	1.4	6.7		9.6	
